The test system of one assay is HCMV strain AD169. Briefly: HCMV plaque formation assay in MRC-5 cells.
The next assay deals with spleen cells. The assay can be described thus: Th1/Th2 cytokine profiling assay (Ovalbumin-restimulated spleen cells, CBA kit). The assay is classed as cell-based, Balb/c mice. As to conditions: 10 micrograms per ml; Ovalbumin restimulation; 72 hours. How it is done:
The Balb/c mice (originated in 1923, it is a popular strain and is used in many different research disciplines. […] On day 50, spleens of the mice were harvested (3 weeks after last boost with Ovalbumin). […] Thereafter, additional Ovalbumin was added to the cells at 10 micrograms/ml for in vitro restimulation of the cells. 72 hours later, cell supernatants were harvested and assayed using the Becton Dickinson Mouse Th1/Th2 Cytokine CBA Kit. This kit can be used to measure Interleukin-2 (IL-2), Interleukin-4 (IL-4), Interleukin-5 (IL-5), Interferon-γ (IFN-γ), and Tumor Necrosis Factor-α (TNF-α) protein levels in a single sample. The kit performance has been optimized for analysis of physiologically relevant concentrations ([…] levels) of specific cytokine proteins in tissue culture supernatants and serum samples.

The next assay has as its system HUVEC. The assay can be described thus: Endothelial tube formation assay. Particulars: 10 micrograms per ml, 20 hours. The assay is classed as cell-based, human.
In assay [1] the test system is hepatitis B virus (HBV) ayw strain. Briefly: HBV assay in HepG2-2.2.15 cells (secreted HBV DNA, TaqMan PCR). As to conditions: 10 micrograms per ml, six days. The assay is classed as cell-based. In general terms: Real-time PCR tracks product formation cycle by cycle.
In assay [2] the test system is Primary Human endothelial cells (HUVEC). Briefly: Endothelial cell migration assay. The assay is classed as cell-based. As to conditions: 10 micrograms per ml, 22 hours.
Another assay concerns HIV-1IIIB. Briefly: HIV-1 antiviral assay in CEM-SS cells (MTS readout). The assay is classed as cell-based.

No end group written: not given here.

Turning to `Nc1nc(O)c2ncn(COC(CO)CO)c2n1` [Ganciclovir, reference compound], in the assay on HCMV strain AD169 (positive control), the “antiviral activity of positive control compound (HCMV)” value is given as “expected levels of antiviral activity”.
For the compound “Ala-Cys-Asn-Thr-Ala-Thr-Cys-Val-Thr-His-Arg-Leu-Ala-Gly-Leu-Leu-Ser-Arg-Ser-Gly-Gly-Met-Val-Lys-Ser-Asn-Phe-Val-Pro-Thr-Asn-Val-Gly-Ser-Lys-Ala-Phe-NH2 (ACNTATCVTHRLAGLLSRSGGMVKSNFVPTNVGSKAF-NH2; ends and bridges not checked) [peptide 1, beta Calcitonin Gene-Related Peptide, commercially available known peptide]”, in the assay with HCMV strain AD169 (10 micrograms per ml, 7-10 days), the “inhibition of HCMV plaque formation as compared to the virus control experiment” value is listed as “did not show any inhibition”. Moreover, in the assay on spleen cells, the “IFNγ spleen cells; TH1 response (% of control)” value was 31.9 % of control, the “IL-2 spleen cells (% of control)” value was 104.8 % of control, the “IL-4 spleen cells; TH2 response (% of control)” value is listed as 90.3 % of control and the “IL-5 spleen cells; TH2 response (% of control)” value is 40.1 % of control. In addition, the “TNF-a spleen cells; TH1 response (% of control)” value with spleen cells is reported as 84.0 % of control. The “inhibition of the tube formation of human endothelial cells” value with HUVEC is on record as 12%. Besides, the “inhibition of HBV replication as compared to the virus control infection” value in assay [1] is recorded as 19.3%. For the same compound, the “inhibition of the migration of human endothelial cells” value in assay [2] is “did not inhibit”.
Consider `Cc1cn([C@H]2C[C@H](N=[N+]=[N-])[C@@H](CO)O2)c(=O)[nH]c1=O` [AZT], for which the “antiviral activity of positive control compounds (HIV-1)” value in the assay with HIV-1IIIB is reported as “expected levels of antiviral activity”.
Regarding `CC(C)(C)NC(=O)[C@@H]1CN(Cc2cccnc2)CCN1C[C@@H](O)C[C@@H](Cc1ccccc1)C(=O)N[C@H]1c2ccccc2C[C@H]1O` [indinavir], the “antiviral activity of positive control compounds (HIV-1)” value in the assay on HIV-1IIIB is recorded as “expected levels of antiviral activity”.

(Values after patent US20100204117A1, “CGRP AS A THERAPEUTIC AGENT” (priority 2008, published 2010).)
